pIC50: −log10 of the molar value.
Key:
LRRK2 wild type enzyme = LRRK2 wild type enzyme (Homo sapiens, UniProt Q5S007); assay: Biochemical Assay: LRRK2 TR-FRET (LanthaScreen) kinase assay with LRRKtide substrate; settings: LRRK2 Inhibition, Table 8
Outline: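 Human wild-type LRRK2 (3 nM) preincubated 15 min with compound (11-point, 3-fold, top 10 μM), then reacted 120 min at 23 °C with 400 nM LRRKtide and 25 μM ATP, pH 8.0. Stopped with EDTA; Tb-anti-pLRRKtide TR-FRET read after 30 min.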

[1] = target: T1, wild type LRRK2 overexpressed in recombinant HEK-293T cells (Homo sapiens, UniProt Q5S007); assay: pS935 LRRK2 Cell Assay (HTRF, phospho-LRRK2 Ser935); format: cell-based; settings: LRRK2 Inhibition, Table 8, 2 hours compound incubation
T1 construct: host or cells: HEK293T (transient transfection with pCMV-LRRK2 WT plasmid)
T1 sequence (Q5S007 whole entry): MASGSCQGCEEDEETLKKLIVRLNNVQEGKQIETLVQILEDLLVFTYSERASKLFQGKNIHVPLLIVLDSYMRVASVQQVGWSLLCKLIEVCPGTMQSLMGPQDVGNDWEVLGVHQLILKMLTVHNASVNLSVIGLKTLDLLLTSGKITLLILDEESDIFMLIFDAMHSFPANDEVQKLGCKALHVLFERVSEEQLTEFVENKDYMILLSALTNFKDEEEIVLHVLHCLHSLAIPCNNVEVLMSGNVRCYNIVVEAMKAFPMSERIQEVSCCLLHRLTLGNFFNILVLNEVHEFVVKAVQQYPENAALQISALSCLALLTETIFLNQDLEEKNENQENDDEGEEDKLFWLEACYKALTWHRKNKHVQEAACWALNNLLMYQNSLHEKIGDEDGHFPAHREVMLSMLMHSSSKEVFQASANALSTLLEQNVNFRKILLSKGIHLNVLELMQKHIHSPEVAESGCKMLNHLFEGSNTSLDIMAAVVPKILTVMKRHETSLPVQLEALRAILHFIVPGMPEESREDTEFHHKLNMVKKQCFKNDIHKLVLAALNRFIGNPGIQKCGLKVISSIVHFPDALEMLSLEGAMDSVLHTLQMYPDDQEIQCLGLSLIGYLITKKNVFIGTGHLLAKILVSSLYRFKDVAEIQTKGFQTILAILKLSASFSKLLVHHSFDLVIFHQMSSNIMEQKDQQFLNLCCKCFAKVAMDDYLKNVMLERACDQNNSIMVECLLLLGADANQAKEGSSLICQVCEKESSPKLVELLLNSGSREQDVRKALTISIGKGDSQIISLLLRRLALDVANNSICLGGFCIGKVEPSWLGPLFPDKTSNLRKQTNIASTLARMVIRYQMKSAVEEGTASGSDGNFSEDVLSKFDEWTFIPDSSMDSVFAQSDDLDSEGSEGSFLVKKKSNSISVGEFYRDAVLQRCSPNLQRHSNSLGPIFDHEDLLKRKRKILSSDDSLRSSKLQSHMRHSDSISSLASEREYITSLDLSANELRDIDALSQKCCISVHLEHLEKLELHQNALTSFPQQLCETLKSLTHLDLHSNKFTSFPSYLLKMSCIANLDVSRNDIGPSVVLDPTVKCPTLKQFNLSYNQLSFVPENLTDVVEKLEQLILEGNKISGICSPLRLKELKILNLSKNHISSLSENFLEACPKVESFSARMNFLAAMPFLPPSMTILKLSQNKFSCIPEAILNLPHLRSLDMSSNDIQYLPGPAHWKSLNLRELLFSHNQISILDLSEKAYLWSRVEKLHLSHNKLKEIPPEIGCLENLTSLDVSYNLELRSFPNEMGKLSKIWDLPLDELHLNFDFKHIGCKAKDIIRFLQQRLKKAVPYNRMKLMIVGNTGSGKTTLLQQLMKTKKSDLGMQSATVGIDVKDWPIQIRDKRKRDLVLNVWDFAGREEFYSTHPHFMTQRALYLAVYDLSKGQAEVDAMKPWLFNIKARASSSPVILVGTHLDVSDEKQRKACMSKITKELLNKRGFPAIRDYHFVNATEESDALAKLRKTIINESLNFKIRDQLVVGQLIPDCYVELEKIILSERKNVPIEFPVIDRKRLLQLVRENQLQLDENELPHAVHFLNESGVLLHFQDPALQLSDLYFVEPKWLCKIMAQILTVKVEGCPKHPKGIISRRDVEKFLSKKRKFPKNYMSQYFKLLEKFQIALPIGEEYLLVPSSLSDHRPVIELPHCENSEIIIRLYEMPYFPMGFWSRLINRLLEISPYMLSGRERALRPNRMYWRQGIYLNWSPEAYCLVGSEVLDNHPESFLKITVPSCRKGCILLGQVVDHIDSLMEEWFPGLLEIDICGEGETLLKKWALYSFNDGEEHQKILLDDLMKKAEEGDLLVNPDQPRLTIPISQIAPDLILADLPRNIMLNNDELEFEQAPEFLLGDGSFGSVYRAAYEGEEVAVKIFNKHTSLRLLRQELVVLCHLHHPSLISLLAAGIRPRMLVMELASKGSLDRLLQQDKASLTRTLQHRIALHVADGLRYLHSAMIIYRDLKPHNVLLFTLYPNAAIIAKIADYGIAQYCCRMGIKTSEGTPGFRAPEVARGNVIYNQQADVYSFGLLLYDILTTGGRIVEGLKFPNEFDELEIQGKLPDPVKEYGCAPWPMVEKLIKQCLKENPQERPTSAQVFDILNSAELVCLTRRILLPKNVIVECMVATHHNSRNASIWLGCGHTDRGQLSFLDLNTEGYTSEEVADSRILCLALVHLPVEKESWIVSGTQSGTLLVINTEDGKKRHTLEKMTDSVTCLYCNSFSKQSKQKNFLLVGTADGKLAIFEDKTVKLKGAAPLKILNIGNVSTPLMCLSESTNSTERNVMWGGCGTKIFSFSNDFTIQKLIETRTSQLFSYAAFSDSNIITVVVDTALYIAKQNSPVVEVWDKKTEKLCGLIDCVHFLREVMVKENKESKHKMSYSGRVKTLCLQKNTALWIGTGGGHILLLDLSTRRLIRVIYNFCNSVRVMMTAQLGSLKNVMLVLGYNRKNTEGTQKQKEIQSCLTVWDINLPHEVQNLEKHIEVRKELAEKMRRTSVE
Outline: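 HEK-293T cells transiently transfected with wild-type LRRK2 for 24 h, plated overnight, then treated 2 h at 37° C with compound (top 10 μM, 3-fold, 9 doses, duplicates, 0.2% DMSO). Lysates probed overnight at 23° C by sandwich HTRF for pSer935; 665/615 nm ratio read.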

LRRK2 wild type enzyme, sequence (Q5S007 whole entry): as above

Row | SMILES | pIC50 (LRRK2 wild type enzyme) | pIC50 [1]
1 | C[C@@H]1C[C@H](n2c(CC(=O)NC3CC3(C)C)nc3cnc4ccc(C#N)cc4c32)CCO1 (stereo partly drawn) [Compound 252, N-2,2-dimethylcyclopropyl{3-[(2R,4R)-2-methyltetrahydro-2H-pyran-4-yl]-12-cyano-3,5,8-triazatricyclo[7.4.0.0^2,6]trideca-1,4,6,8,10,12-hexaen-4-yl}acetamide] | 9.19 | 7.74
2 | C[C@@H]1C[C@H](n2c(CC(=O)Nc3cnn(C)c(=O)c3)nc3cnc4ccc(Cl)cc4c32)CCO1 [Compound 206, N-(1-methyl-6-oxo-1,6-dihydro-4-pyridazinyl){3-[(2R,4R)-2-methyltetrahydro-2H-pyran-4-yl]-12-chloro-3,5,8-triazatricyclo[7.4.0.0^2,6]trideca-1,4,6,8,10,12-hexaen-4-yl}acetamide] | 9.32 | 8.08
3 | C[C@@H]1C[C@H](n2c(C3CC(=O)N(Cc4cnn(C)c4)C3)nc3cnc4ccc(C#N)cc4c32)CCO1 (mixture of isomers) [Compound 58, 2-[(3RS)-1-[(1-methyl-1H-pyrazol-4-yl)methyl]-5-oxopyrrolidin-3-yl]-1-[(2R,4R)-2-methyloxan-4-yl]-1H-imidazo[4,5-c]quinoline-8-carbonitrile] | 8.80 | 6.03
4 | C[C@@H]1C[C@H](n2c(CNC(=O)OC(C)(C)C)nc3cnc4ccc(C#N)cc4c32)CCO1 [Compound 33, tert-butyl N-({8-cyano-1-[(2R,4R)-2-methyloxan-4-yl]-1H-imidazo[4,5-c]quinolin-2-yl}methyl)carbamate] | 8.28 | 6.40
5 | C[C@@H]1C[C@H](n2c(CC(=O)NCC(F)(F)CO)nc3cnc4ccc(C#N)cc4c32)CCO1 [Compound 233, N-(2,2-difluoro-3-hydroxypropyl){3-[(2R,4R)-2-methyltetrahydro-2H-pyran-4-yl]-12-cyano-3,5,8-triazatricyclo[7.4.0.0^2,6]trideca-1,4,6,8,10,12-hexaen-4-yl}acetamide] | 9.08 | 6.61
6 | CC(=O)N1CCC(c2nc3cnc4ccc(C#N)cc4c3n2[C@@H]2CCO[C@H](C)C2)CC1 [Compound 116, 2-(1-acetylpiperidin-4-yl)-1-[(2R,4R)-2-methyloxan-4-yl]-1H-imidazo[4,5-c]quinoline-8-carbonitrile] | 8.90 | 6.46
7 | C[C@@H]1C[C@H](n2c(CC(=O)Nc3cnoc3)nc3cnc4ccc(Cl)cc4c32)CCO1 [Compound 313] | 9.14 | 8.15
8 | COCC1(NC(=O)Cc2nc3cnc4ccc(C#N)cc4c3n2[C@@H]2CCO[C@H](C)C2)CC1 [Compound 276] | 9.04 | 7.07
9 | CCc1ncc(NC(=O)Cc2nc3cnc4ccc(C#N)cc4c3n2[C@@H]2CCO[C@H](C)C2)cn1 [Compound 262, N-(2-ethyl-5-pyrimidinyl){3-[(2R,4R)-2-methyltetrahydro-2H-pyran-4-yl]-12-cyano-3,5,8-triazatricyclo[7.4.0.0^2,6]trideca-1,4,6,8,10,12-hexaen-4-yl}acetamide] | 9.33 | 7.74
10 | C[C@@H]1C[C@H](n2c(CC(=O)Nc3cc(C4CCC4)no3)nc3cnc4ccc(C#N)cc4c32)CCO1 [Compound 340, N-(3-cyclobutyl-5-isoxazolyl){3-[(2R,4R)-2-methyltetrahydro-2H-pyran-4-yl]-12-cyano-3,5,8-triazatricyclo[7.4.0.0^2,6]trideca-1(9),2(6),4,7,10,12-hexaen-4-yl}acetamide] | 8.82 | 7.80
11 | C[C@@H]1C[C@H](n2c(C3CC(=O)N(c4cnn(CCO)c4)C3)nc3cnc4ccc(C#N)cc4c32)CCO1 (stereo partly drawn) [Compound 123, 2-{1-[1-(2-hydroxyethyl)-1H-pyrazol-4-yl]-5-oxopyrrolidin-3-yl}-1-[(2R,4R)-2-methyloxan-4-yl]-1H-imidazo[4,5-c]quinoline-8-carbonitrile] | 8.85 | 5.39
12 | COc1nn(C)cc1NC(=O)Cc1nc2cnc3ccc(C#N)cc3c2n1[C@@H]1CCO[C@H](C)C1 [Compound 229, N-(3-methoxy-1-methyl-4-pyrazolyl){3-[(2R,4R)-2-methyltetrahydro-2H-pyran-4-yl]-12-cyano-3,5,8-triazatricyclo[7.4.0.0^2,6]trideca-1,4,6,8,10,12-hexaen-4-yl}acetamide] | 9.50 | 8.18
13 | C[C@@H]1C[C@H](n2c(CC(=O)Nc3cnccc3O)nc3cnc4ccc(C#N)cc4c32)CCO1 [Compound 208, N-(4-hydroxy-3-pyridyl){3-[(2R,4R)-2-methyltetrahydro-2H-pyran-4-yl]-12-cyano-3,5,8-triazatricyclo[7.4.0.0^2,6]trideca-1,4,6,8,10,12-hexaen-4-yl}acetamide] | 9.24 | 5.31
14 | C[C@@H]1C[C@H](n2c(CC(=O)NCC3CC3)nc3cnc4ccc(C#N)cc4c32)CCO1 [Compound 54, 2-{8-cyano-1-[(2R,4R)-2-methyloxan-4-yl]-1H-imidazo[4,5-c]quinolin-2-yl}-N-(cyclopropylmethyl)acetamide] | 9.47 | 7.83
15 | C[C@@H]1C[C@H](n2c(C3CC(=O)N(c4ccnn4C)C3)nc3cnc4ccc(C#N)cc4c32)CCO1 (stereo partly drawn) [Compound 103, 2-[1-(1-methyl-1H-pyrazol-5-yl)-5-oxopyrrolidin-3-yl]-1-[(2R,4R)-2-methyloxan-4-yl]-1H-imidazo[4,5-c]quinoline-8-carbonitrile] | 8.70 | 6.40
16 | C[C@@H]1C[C@H](n2c(CC(=O)Nc3cccn(CCO)c3=O)nc3cnc4ccc(C#N)cc4c32)CCO1 [Compound 225, N-[1-(2-hydroxyethyl)-2-oxo-1,2-dihydro-3-pyridyl]{3-[(2R,4R)-2-methyltetrahydro-2H-pyran-4-yl]-12-cyano-3,5,8-triazatricyclo[7.4.0.0^2,6]trideca-1,4,6,8,10,12-hexaen-4-yl}acetamide] | 9.41 | 6.98
17 | Cc1cnncc1NC(=O)Cc1nc2cnc3ccc(C#N)cc3c2n1[C@@H]1CCO[C@H](C)C1 [Compound 258, N-(5-methyl-4-pyridazinyl){3-[(2R,4R)-2-methyltetrahydro-2H-pyran-4-yl]-12-cyano-3,5,8-triazatricyclo[7.4.0.0^2,6]trideca-1,4,6,8,10,12-hexaen-4-yl}acetamide] | 9.28 | 7.76
18 | C[C@@H]1C[C@H](n2c(CC(=O)Nc3ccon3)nc3cnc4ccc(Cl)cc4c32)CCO1 [Compound 352, N-3-isoxazolyl{3-[(2R,4R)-2-methyltetrahydro-2H-pyran-4-yl]-12-chloro-3,5,8-triazatricyclo[7.4.0.0^2,6]trideca-1(9),2(6),4,7,10,12-hexaen-4-yl}acetamide] | 9.29 | 8.39
19 | C[C@@H]1C[C@H](n2c(CC(=O)NC(C)(C)c3ccccn3)nc3cnc4ccc(C#N)cc4c32)CCO1 [Compound 185, 2-{8-cyano-1-[(2R,4R)-2-methyloxan-4-yl]-1H-imidazo[4,5-c]quinolin-2-yl}-N-[2-(pyridin-2-yl)propan-2-yl]acetamide] | 9.38 | 8.59
20 | C[C@@H]1C[C@H](n2c(CC(=O)Nc3ccccc3)nc3cnc4ccc(C#N)cc4c32)CCO1 [Compound 330, N-phenyl{3-[(2R,4R)-2-methyltetrahydro-2H-pyran-4-yl]-12-cyano-3,5,8-triazatricyclo[7.4.0.0^2,6]trideca-1(9),2(6),4,7,10,12-hexaen-4-yl}acetamide] | 9.29 | 8.33
21 | C[C@@H]1C[C@H](n2c(CN)nc3cnc4ccc(C#N)cc4c32)CCO1 [Compound 32, 2-(aminomethyl)-1-[(2R,4R)-2-methyloxan-4-yl]-1H-imidazo[4,5-c]quinoline-8-carbonitrile] | 8.26 | 6.37
22 | C[C@@H]1C[C@H](n2c(CC(=O)Nc3cncn(C)c3=O)nc3cnc4ccc(C#N)cc4c32)CCO1 [Compound 223, N-(1-methyl-6-oxo-1,6-dihydro-5-pyrimidinyl){3-[(2R,4R)-2-methyltetahydro-2H-pyran-4-yl]-12-cyano-3,5,8-triazatricyclo[7.4.0.0^2,6]trideca-1,4,6,8,10,12-hexaen-4-yl}acetamide] | 9.50 | 7.97
23 | C[C@@H]1C[C@H](n2c(CNC(=O)c3ccccn3)nc3cnc4ccc(C#N)cc4c32)CCO1 [Compound 19, N-({8-cyano-1-[(2R,4R)-2-methyloxan-4-yl]-1H-imidazo[4,5-c]quinolin-2-yl}methyl)pyridine-2-carboxamide] | 9.23 | 7.64
24 | COc1cc(C)ncc1NC(=O)Cc1nc2cnc3ccc(C#N)cc3c2n1[C@@H]1CCO[C@H](C)C1 [Compound 226, N-(4-methoxy-6-methyl-3-pyridyl){3-[(2R,4R)-2-methyltetrahydro-2H-pyran-4-yl]-12-cyano-3,5,8-triazatricyclo[7.4.0.0^2,6]trideca-1,4,6,8,10,12-hexaen-4-yl}acetamide] | 9.34 | 8.26
25 | C[C@@H]1C[C@H](n2c(C3CC(=O)N([C@@H]4CCCOC4)C3)nc3cnc4ccc(C#N)cc4c32)CCO1 (stereo partly drawn) [Compound 51, 1-[(2R,4R)-2-methyloxan-4-yl]-2-{1-[(3R)-oxan-3-yl]-5-oxopyrrolidin-3-yl}-1H-imidazo[4,5-c]quinoline-8-carbonitrile] | 8.52 | 6.51
26 | Cc1ncnc(C)c1NC(=O)Cc1nc2cnc3ccc(C#N)cc3c2n1[C@@H]1CCO[C@H](C)C1 [Compound 260, N-(4,6-dimethyl-5-pyrimidinyl){3-[(2R,4R)-2-methyltetrahydro-2pyran-4-yl]-12-cyano-3,5,8-triazatricyclo[7.4.0.0^2,6]trideca-1,4,6,8,10,12-hexaen-4-yl}acetamide] | 9.40 | 7.52
